According to patent publication US5061711A, “Method of curing liver diseases by using pyrrolo quinoline quinone triesters and novel pyrrolo quinoline quinone triesters” (Mitsubishi Gas Chemical Company, Inc., priority 1989, dated 1991):

Legend:
mice = experiment: Kidney toxicity determined by urine test; type: in vivo, mouse; details: for glucose in urine (in words): i.p., all doses
Protocol: (2) Kidney toxicity determined by urine test
PQQ.2Na, PQQ trimethyl ester and PQQ triallyl ester were intraperitoneally administered to mice and they were bred in the same manner as in the above acute toxicity test. The doses per kg of body weight of mouse were 20, 40 and 80 mg for PQQ.2Na and 20, 40, 80, 160 and 200 mg for PQQ triesters. Urine was collected every day and glucose concentration was examined using clinical examination reagent (trademark: […] II manufactured by Miles.Sankyo Co.).

[1] = test system: carbon tetrachloride (CCl4)-induced liver diseases; experiment: Pharmacological activity (2) on carbon tetrachloride (CCl4)-induced liver diseases; type: in vivo, SD rats; details: CCl4 1 ml/kg rat i.p., 24 hours, average of five rats; for Total bilirubin in serum: CCl4 alone 0.9; for GPT in serum: CCl4 alone 949; for GOT in serum: CCl4 alone 1970
Protocol: Pharmacological activity (2) of PQQ triesters on carbon tetrachloride (CCl4)-induced liver diseases:
Forty SD rats (male, 7 weeks old, body weight: about 260 g; supplied by Japan Charles River Co.) were divided to eight groups (A-H) each consisting of five rats. All rats were fasted for 18 hours and 1.3 ml of a solution containing 2 mg/ml of PQQ trimethyl ester was intraperitoneally administered to the rats of group C, 1.3 ml of a solution containing 10 mg/ml of PQQ trimethyl ester was intraperitoneally administered to the rats of group D, 1.3 ml of a solution containing 20 mg/ml of PQQ trimethyl ester was intraperitoneally administered to the rats of group E, 1.3 ml of a solution containing 2 mg/ml of PQQ triallyl ester was intraperitoneally administered to the rats of group F, 1.3 ml of a solution containing […] was intraperitoneally administered to the rats of group G, and 1.3 ml of a solution containing 20 mg/ml of PQQ triallyl ester was intraperitoneally administered to the rats of group H and furthermore, after lapse of 50 minutes, the same PQQ triesters in the same doses as above were intraperitoneally administered to respective rats. In these cases, the PQQ triesters were suspended in physiological saline containing 1% Tween 80 and administered to the rats. 1.3 ml of physiological saline was intraperitoneally administered to the rats of group B in place of PQQ triesters. […] Neither PQQ triesters nor carbon tetrachloride were administered to the rats of group A.
After 24 hours from administration of carbon tetrachloride, blood was collected from abdominal main artery and serum was obtained by centrifugation therefrom.
GPT, […] and amount of total bilirubin in the serum were measured by clinical examination reagent (trademark: FUJI DRYCHEMSLIDE manufactured by Fuji Photo Film Co., Ltd.). The results are shown in Table 6 by average value of five rats.

[2] = test system: D-galactosamine-induced liver diseases; experiment: Pharmacological effect (2) on D-galactosamine-induced liver diseases; type: in vivo, SD rats; details: D-galactosamine 1 g/kg rat i.p., 23 hours, average of five rats; for Total bilirubin in serum: D-galactosamine alone 1.4; for GPT in serum: D-galactosamine alone 1560; for GOT in serum: D-galactosamine alone 2542
Protocol: Pharmacological effect (2) of PQQ triesters on D-galactosamine-induced liver diseases:
Forty SD rats (male, 7 weeks old, body weight: about 260 g; supplied by Japan Charles River Co.) were divided to eight groups (A-H) each consisting of five rats. All rats were fasted for 18 hours and 1.3 ml of a solution containing 1 mg/ml of PQQ trimethyl ester was orally administered to the rats of group C, 1.3 ml of a solution containing 2 mg/ml of PQQ trimethyl ester was orally administered to the rats of group D, 1.3 ml of a solution containing 3 mg/ml of PQQ trimethyl ester was orally administered to the rats of group E, 1.3 ml of a solution containing 1 mg/ml of PQQ triallyl ester was orally administered to the rats of group F, 1.3 ml of a solution containing 2 mg/ml of PQQ triallyl ester was orally administered to the rats of group G, and 1.3 ml of a solution containing 3 mg/ml of PQQ triallyl ester was orally administered to the rats of group H and furthermore, after lapse of 40 minutes, the same PQQ triesters in the same doses as above were orally administered to respective rats. In these cases, the PQQ triesters were suspended in physiological saline containing 1% Tween 80 and administered to the rats. 1.3 ml of physiological saline was orally administered to the rats of group B in place of PQQ triesters. Furthermore, after lapse of 20 minutes, 1.3 ml of a solution of d-galactosamine in 10 ml of physiological saline was intraperitoneally administered to the rats of groups B-H. Neither PQQ triesters nor D-galactosamine were administered to the rats of group A.
After 23 hours from administration of D-galactosamine, blood was collected from abdominal main artery and serum was obtained by centrifugation therefrom.
GPT, GOT and amount of total bilirubin in the serum were measured by clinical examination reagent (trademark: FUJI DRYCHEMSLIDE manufactured by Fuji Photo Film Co., Ltd.). The results are shown in Table 8 by average value of five rats.

C=CCOC(=O)c1cc(C(=O)OCC=C)c2c(n1)C(=O)C(=O)c1cc(C(=O)OCC=C)[nH]c1-2 [PQQ triallyl ester]
glucose in urine (mice; i.p. 20 mg/kg, day 1): -
glucose in urine (mice; i.p. 20 mg/kg, day 2): -
glucose in urine (mice; i.p. 20 mg/kg, day 3): -
glucose in urine (mice; i.p. 20 mg/kg, day 6): -
glucose in urine (mice; i.p. 20 mg/kg, day 7): -
glucose in urine (mice; i.p. 20 mg/kg, day 8): -
glucose in urine (mice; i.p. 20 mg/kg, day 10): -
glucose in urine (mice; i.p. 20 mg/kg, day 13): -
glucose in urine (mice; i.p. 20 mg/kg, day 14): -
glucose in urine (mice; i.p. 40 mg/kg, day 1): -
glucose in urine (mice; i.p. 40 mg/kg, day 2): -
glucose in urine (mice; i.p. 40 mg/kg, day 3): -
glucose in urine (mice; i.p. 40 mg/kg, day 6): -
glucose in urine (mice; i.p. 40 mg/kg, day 7): -
glucose in urine (mice; i.p. 40 mg/kg, day 8): -
glucose in urine (mice; i.p. 40 mg/kg, day 10): -
glucose in urine (mice; i.p. 40 mg/kg, day 13): -
glucose in urine (mice; i.p. 40 mg/kg, day 14): -
glucose in urine (mice; i.p. 80 mg/kg, day 1): -
glucose in urine (mice; i.p. 80 mg/kg, day 2): -
glucose in urine (mice; i.p. 80 mg/kg, day 3): -
glucose in urine (mice; i.p. 80 mg/kg, day 6): -
glucose in urine (mice; i.p. 80 mg/kg, day 7): -
glucose in urine (mice; i.p. 80 mg/kg, day 8): -
glucose in urine (mice; i.p. 80 mg/kg, day 10): -
glucose in urine (mice; i.p. 80 mg/kg, day 13): -
glucose in urine (mice; i.p. 80 mg/kg, day 14): -
glucose in urine (mice; i.p. 160 mg/kg, day 1): -
glucose in urine (mice; i.p. 160 mg/kg, day 2): -
glucose in urine (mice; i.p. 160 mg/kg, day 3): -
glucose in urine (mice; i.p. 160 mg/kg, day 6): -
glucose in urine (mice; i.p. 160 mg/kg, day 7): -
glucose in urine (mice; i.p. 160 mg/kg, day 8): -
glucose in urine (mice; i.p. 160 mg/kg, day 10): -
glucose in urine (mice; i.p. 160 mg/kg, day 13): -
glucose in urine (mice; i.p. 160 mg/kg, day 14): -
glucose in urine (mice; i.p. 200 mg/kg, day 1): -
glucose in urine (mice; i.p. 200 mg/kg, day 2): -
glucose in urine (mice; i.p. 200 mg/kg, day 3): -
glucose in urine (mice; i.p. 200 mg/kg, day 6): -
glucose in urine (mice; i.p. 200 mg/kg, day 7): -
glucose in urine (mice; i.p. 200 mg/kg, day 8): -
glucose in urine (mice; i.p. 200 mg/kg, day 10): -
glucose in urine (mice; i.p. 200 mg/kg, day 13): -
glucose in urine (mice; i.p. 200 mg/kg, day 14): -
glucose in urine (in words) (mice): no glucose was detected
Total bilirubin in serum ([1]; i.p. 10 mg/kg rat twice): 0.7 mg/dL
GPT in serum ([1]; i.p. 10 mg/kg rat twice): 323 U/l
GOT in serum ([1]; i.p. 10 mg/kg rat twice): 1186 U/l
Total bilirubin in serum ([1]; i.p. 50 mg/kg rat twice): 0.7 mg/dL
GPT in serum ([1]; i.p. 50 mg/kg rat twice): 583 U/l
GOT in serum ([1]; i.p. 50 mg/kg rat twice): 1270 U/l
Total bilirubin in serum ([1]; i.p. 100 mg/kg rat twice): 0.8 mg/dL
GPT in serum ([1]; i.p. 100 mg/kg rat twice): 576 U/l
GOT in serum ([1]; i.p. 100 mg/kg rat twice): 1563 U/l
Total bilirubin in serum ([2]; oral 5 mg/kg rat twice): 1.1 mg/dL
GPT in serum ([2]; oral 5 mg/kg rat twice): 619 U/l
GOT in serum ([2]; oral 5 mg/kg rat twice): 1409 U/l
Total bilirubin in serum ([2]; oral 10 mg/kg rat twice): 0.9 mg/dL
GPT in serum ([2]; oral 10 mg/kg rat twice): 570 U/l
GOT in serum ([2]; oral 10 mg/kg rat twice): 1184 U/l
Total bilirubin in serum ([2]; oral 15 mg/kg rat twice): 1.0 mg/dL
GPT in serum ([2]; oral 15 mg/kg rat twice): 593 U/l
GOT in serum ([2]; oral 15 mg/kg rat twice): 1742 U/l

COC(=O)c1cc(C(=O)OC)c2c(n1)C(=O)C(=O)c1cc(C(=O)OC)[nH]c1-2 [PQQ trimethyl ester]
glucose in urine (mice; i.p. 20 mg/kg, day 1): -
glucose in urine (mice; i.p. 20 mg/kg, day 2): -
glucose in urine (mice; i.p. 20 mg/kg, day 3): -
glucose in urine (mice; i.p. 20 mg/kg, day 6): -
glucose in urine (mice; i.p. 20 mg/kg, day 7): -
glucose in urine (mice; i.p. 20 mg/kg, day 8): -
glucose in urine (mice; i.p. 20 mg/kg, day 10): -
glucose in urine (mice; i.p. 20 mg/kg, day 13): -
glucose in urine (mice; i.p. 20 mg/kg, day 14): -
glucose in urine (mice; i.p. 40 mg/kg, day 1): -
glucose in urine (mice; i.p. 40 mg/kg, day 2): -
glucose in urine (mice; i.p. 40 mg/kg, day 3): -
glucose in urine (mice; i.p. 40 mg/kg, day 6): -
glucose in urine (mice; i.p. 40 mg/kg, day 7): -
glucose in urine (mice; i.p. 40 mg/kg, day 8): -
glucose in urine (mice; i.p. 40 mg/kg, day 10): -
glucose in urine (mice; i.p. 40 mg/kg, day 13): -
glucose in urine (mice; i.p. 40 mg/kg, day 14): -
glucose in urine (mice; i.p. 80 mg/kg, day 1): -
glucose in urine (mice; i.p. 80 mg/kg, day 2): -
glucose in urine (mice; i.p. 80 mg/kg, day 3): -
glucose in urine (mice; i.p. 80 mg/kg, day 6): -
glucose in urine (mice; i.p. 80 mg/kg, day 7): -
glucose in urine (mice; i.p. 80 mg/kg, day 8): -
glucose in urine (mice; i.p. 80 mg/kg, day 10): -
glucose in urine (mice; i.p. 80 mg/kg, day 13): -
glucose in urine (mice; i.p. 80 mg/kg, day 14): -
glucose in urine (mice; i.p. 160 mg/kg, day 1): -
glucose in urine (mice; i.p. 160 mg/kg, day 2): -
glucose in urine (mice; i.p. 160 mg/kg, day 3): -
glucose in urine (mice; i.p. 160 mg/kg, day 6): -
glucose in urine (mice; i.p. 160 mg/kg, day 7): -
glucose in urine (mice; i.p. 160 mg/kg, day 8): -
glucose in urine (mice; i.p. 160 mg/kg, day 10): -
glucose in urine (mice; i.p. 160 mg/kg, day 13): -
glucose in urine (mice; i.p. 160 mg/kg, day 14): -
glucose in urine (mice; i.p. 200 mg/kg, day 1): -
glucose in urine (mice; i.p. 200 mg/kg, day 2): -
glucose in urine (mice; i.p. 200 mg/kg, day 3): -
glucose in urine (mice; i.p. 200 mg/kg, day 6): -
glucose in urine (mice; i.p. 200 mg/kg, day 7): -
glucose in urine (mice; i.p. 200 mg/kg, day 8): -
glucose in urine (mice; i.p. 200 mg/kg, day 10): -
glucose in urine (mice; i.p. 200 mg/kg, day 13): -
glucose in urine (mice; i.p. 200 mg/kg, day 14): -
glucose in urine (in words) (mice): no glucose was detected
Total bilirubin in serum ([1]; i.p. 10 mg/kg rat twice): 0.9 mg/dL
GPT in serum ([1]; i.p. 10 mg/kg rat twice): 479 U/l
GOT in serum ([1]; i.p. 10 mg/kg rat twice): 1263 U/l
Total bilirubin in serum ([1]; i.p. 50 mg/kg rat twice): 0.7 mg/dL
GPT in serum ([1]; i.p. 50 mg/kg rat twice): 645 U/l
GOT in serum ([1]; i.p. 50 mg/kg rat twice): 1543 U/l
Total bilirubin in serum ([1]; i.p. 100 mg/kg rat twice): 0.8 mg/dL
GPT in serum ([1]; i.p. 100 mg/kg rat twice): 676 U/l
GOT in serum ([1]; i.p. 100 mg/kg rat twice): 1605 U/l
Total bilirubin in serum ([2]; oral 5 mg/kg rat twice): 0.8 mg/dL
GPT in serum ([2]; oral 5 mg/kg rat twice): 431 U/l
GOT in serum ([2]; oral 5 mg/kg rat twice): 926 U/l
Total bilirubin in serum ([2]; oral 10 mg/kg rat twice): 0.7 mg/dL
GPT in serum ([2]; oral 10 mg/kg rat twice): 330 U/l
GOT in serum ([2]; oral 10 mg/kg rat twice): 540 U/l
Total bilirubin in serum ([2]; oral 15 mg/kg rat twice): 1.0 mg/dL
GPT in serum ([2]; oral 15 mg/kg rat twice): 701 U/l
GOT in serum ([2]; oral 15 mg/kg rat twice): 1260 U/l
